What all share (test): relative viability (nuclei count vs DMSO), 5 days (fraction); higher = more cells survive
Compound in the assay “Tipifarnib + OSI-027”: Cn1cncc1[C@@](N)(c1ccc(Cl)cc1)c1ccc2c(c1)c(-c1cccc(Cl)c1)cc(=O)n2C [Tipifarnib] + COc1cccc2cc(-c3nc([C@H]4CC[C@H](C(=O)O)CC4)n4ncnc(N)c34)[nH]c12 [OSI-027] (partner 0.5 µM)
A digest of the protocol: (§1)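 Relative viability divides the nuclei count in treated wells by that in vehicle wells. Lung cancer cell lines were seeded in 1536-well plates, dosed by pin tool the next day, and fixed and stained after 5 days in one step with final 0.05% Triton X-100, 1% formaldehyde and 1 ug/ml Hoechst. Dosing was a single drug or a fixed anchor-drug dose plus five library-drug doses (not always all listed) in √10 steps, and values are medians of duplicate plates imaged at 4×.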

Compound in the assay “Tipifarnib + Crizotinib”: Cn1cncc1[C@@](N)(c1ccc(Cl)cc1)c1ccc2c(c1)c(-c1cccc(Cl)c1)cc(=O)n2C [Tipifarnib] + C[C@@H](Oc1cc(-c2cnn(C3CCNCC3)c2)cnc1N)c1c(Cl)ccc(F)c1Cl [Crizotinib] (partner 1 µM)
The procedure, abridged: as §1

Compound in the assay “Tipifarnib + Linsitinib”: Cn1cncc1[C@@](N)(c1ccc(Cl)cc1)c1ccc2c(c1)c(-c1cccc(Cl)c1)cc(=O)n2C [Tipifarnib] + C[C@]1(O)C[C@@H](c2nc(-c3ccc4ccc(-c5ccccc5)nc4c3)c3c(N)nccn32)C1 [Linsitinib] (partner 1 µM)
The procedure, abridged:
as §1

Compound in the assay “Tipifarnib + Tozasertib”: Cn1cncc1[C@@](N)(c1ccc(Cl)cc1)c1ccc2c(c1)c(-c1cccc(Cl)c1)cc(=O)n2C [Tipifarnib] + Cc1cc(Nc2cc(N3CCN(C)CC3)nc(Sc3ccc(NC(=O)C4CC4)cc3)n2)n[nH]1 [Tozasertib] (partner 0.1 µM)
The procedure, abridged: as §1

As for ABC-1, the relative viability in the assay with Tipifarnib + OSI-027 (first compound 0.01 µM) is 0.554; with Tipifarnib + OSI-027 (first compound 0.1 µM), 0.414; with Tipifarnib + OSI-027 (first compound 0.3162 µM), 0.32; in the assay with Tipifarnib + OSI-027 (first compound 1 µM) it was 0.267; with Tipifarnib + Crizotinib (first compound 0.01 µM), 1.05; with Tipifarnib + Crizotinib (first compound 0.1 µM), 0.609. Besides, the relative viability worked out at 0.676 in the assay with Tipifarnib + Crizotinib (first compound 0.3162 µM); 0.452 with Tipifarnib + Crizotinib (first compound 1 µM); 0.827 in the assay with Tipifarnib + Linsitinib (first compound 0.01 µM); 0.76 with Tipifarnib + Linsitinib (first compound 0.1 µM); 0.665 with Tipifarnib + Linsitinib (first compound 0.3162 µM); 0.554 with Tipifarnib + Linsitinib (first compound 1 µM). Moreover, the relative viability amounted to 0.21 with Tipifarnib + Tozasertib (first compound 0.01 µM), 0.191 in the assay with Tipifarnib + Tozasertib (first compound 0.1 µM), 0.154 with Tipifarnib + Tozasertib (first compound 0.3162 µM) and 0.238 in the assay with Tipifarnib + Tozasertib (first compound 1 µM).
Consider HCC-15, for which the relative viability with Tipifarnib + OSI-027 (first compound 0.01 µM) was found to be 0.555; with Tipifarnib + OSI-027 (first compound 0.03162 µM), 0.467; with Tipifarnib + OSI-027 (first compound 0.1 µM), 0.293; with Tipifarnib + OSI-027 (first compound 0.3162 µM), 0.255; with Tipifarnib + OSI-027 (first compound 1 µM), 0.191; with Tipifarnib + Crizotinib (first compound 0.01 µM), 0.666. Besides, the relative viability with Tipifarnib + Crizotinib (first compound 0.03162 µM) is 0.601; in the assay with Tipifarnib + Crizotinib (first compound 0.1 µM), 0.396; with Tipifarnib + Crizotinib (first compound 0.3162 µM), 0.41; with Tipifarnib + Crizotinib (first compound 1 µM) it was 0.448; in the assay with Tipifarnib + Linsitinib (first compound 0.01 µM) it was 0.78; in the assay with Tipifarnib + Linsitinib (first compound 0.03162 µM), 0.751. In addition, the relative viability was 0.627 in the assay with Tipifarnib + Linsitinib (first compound 0.1 µM); 0.544 with Tipifarnib + Linsitinib (first compound 0.3162 µM); 0.548 with Tipifarnib + Linsitinib (first compound 1 µM); 0.242 with Tipifarnib + Tozasertib (first compound 0.01 µM); 0.227 in the assay with Tipifarnib + Tozasertib (first compound 0.03162 µM); 0.227 with Tipifarnib + Tozasertib (first compound 0.1 µM). Besides, the relative viability with Tipifarnib + Tozasertib (first compound 0.3162 µM) stood at 0.153; in the assay with Tipifarnib + Tozasertib (first compound 1 µM), 0.174.
Take PC-3 [JPC-3]: the relative viability in the assay with Tipifarnib + OSI-027 (first compound 0.01 µM) was 0.751; with Tipifarnib + OSI-027 (first compound 0.03162 µM) it was 0.67; with Tipifarnib + OSI-027 (first compound 0.1 µM) it was 0.598; with Tipifarnib + OSI-027 (first compound 0.3162 µM), 0.343; with Tipifarnib + OSI-027 (first compound 1 µM), 0.324; with Tipifarnib + Crizotinib (first compound 0.01 µM), 1.04. The relative viability came to 0.928 in the assay with Tipifarnib + Crizotinib (first compound 0.03162 µM); 0.88 with Tipifarnib + Crizotinib (first compound 0.1 µM); 0.828 with Tipifarnib + Crizotinib (first compound 0.3162 µM); 0.709 with Tipifarnib + Crizotinib (first compound 1 µM); 0.956 in the assay with Tipifarnib + Linsitinib (first compound 0.01 µM); 0.899 in the assay with Tipifarnib + Linsitinib (first compound 0.03162 µM). Further, the relative viability was determined as 0.872 with Tipifarnib + Linsitinib (first compound 0.1 µM); 0.769 with Tipifarnib + Linsitinib (first compound 0.3162 µM); 0.736 with Tipifarnib + Linsitinib (first compound 1 µM); 0.827 with Tipifarnib + Tozasertib (first compound 0.01 µM); 0.827 with Tipifarnib + Tozasertib (first compound 0.03162 µM); 0.722 in the assay with Tipifarnib + Tozasertib (first compound 0.1 µM). Further, the figures for the relative viability with Tipifarnib + Tozasertib (first compound 0.3162 µM) and with Tipifarnib + Tozasertib (first compound 1 µM) were 0.701 and 0.535, respectively.
For the cell line NCI-H1993, the relative viability in the assay with Tipifarnib + OSI-027 (first compound 0.01 µM) came to 0.469; with Tipifarnib + OSI-027 (first compound 0.03162 µM), 0.613; in the assay with Tipifarnib + OSI-027 (first compound 0.1 µM) it was 0.531; with Tipifarnib + OSI-027 (first compound 0.3162 µM), 0.644; with Tipifarnib + OSI-027 (first compound 1 µM) it was 0.604; with Tipifarnib + Crizotinib (first compound 0.01 µM), 0.77. The relative viability with Tipifarnib + Crizotinib (first compound 0.03162 µM) was 0.749; with Tipifarnib + Crizotinib (first compound 0.1 µM), 0.617; in the assay with Tipifarnib + Crizotinib (first compound 0.3162 µM) it was 0.595; with Tipifarnib + Crizotinib (first compound 1 µM) it was 0.661; with Tipifarnib + Linsitinib (first compound 0.01 µM), 0.772; with Tipifarnib + Linsitinib (first compound 0.03162 µM), 0.746. For the same cell line, the relative viability with Tipifarnib + Linsitinib (first compound 0.1 µM) was determined as 0.73; with Tipifarnib + Linsitinib (first compound 0.3162 µM), 0.732; with Tipifarnib + Linsitinib (first compound 1 µM), 0.789; in the assay with Tipifarnib + Tozasertib (first compound 0.01 µM), 0.444; with Tipifarnib + Tozasertib (first compound 0.03162 µM), 0.481; in the assay with Tipifarnib + Tozasertib (first compound 0.1 µM) it was 0.553. Also, the relative viability was 0.521 with Tipifarnib + Tozasertib (first compound 0.3162 µM) and 0.481 in the assay with Tipifarnib + Tozasertib (first compound 1 µM).
In the case of NCI-H358, the relative viability was determined as 0.803 in the assay with Tipifarnib + OSI-027 (first compound 0.01 µM); 0.788 with Tipifarnib + OSI-027 (first compound 0.03162 µM); 0.429 with Tipifarnib + OSI-027 (first compound 0.1 µM); 0.385 in the assay with Tipifarnib + OSI-027 (first compound 0.3162 µM); 0.178 with Tipifarnib + OSI-027 (first compound 1 µM); 0.563 with Tipifarnib + Crizotinib (first compound 0.01 µM). In addition, the relative viability stood at 0.261 with Tipifarnib + Crizotinib (first compound 0.03162 µM); 0.35 in the assay with Tipifarnib + Crizotinib (first compound 0.1 µM); 0.245 in the assay with Tipifarnib + Crizotinib (first compound 0.3162 µM); 0.23 in the assay with Tipifarnib + Crizotinib (first compound 1 µM); 0.782 in the assay with Tipifarnib + Linsitinib (first compound 0.01 µM); 0.691 with Tipifarnib + Linsitinib (first compound 0.03162 µM). In addition, the relative viability was found to be 0.664 with Tipifarnib + Linsitinib (first compound 0.1 µM); 0.512 in the assay with Tipifarnib + Linsitinib (first compound 0.3162 µM); 0.48 with Tipifarnib + Linsitinib (first compound 1 µM); 0.117 with Tipifarnib + Tozasertib (first compound 0.01 µM); 0.123 with Tipifarnib + Tozasertib (first compound 0.03162 µM); 0.104 with Tipifarnib + Tozasertib (first compound 0.1 µM). Besides, the relative viability with Tipifarnib + Tozasertib (first compound 0.3162 µM) is 0.104; in the assay with Tipifarnib + Tozasertib (first compound 1 µM), 0.11.
With NCI-H1915, the relative viability in the assay with Tipifarnib + OSI-027 (first compound 0.01 µM) was found to be 0.445; in the assay with Tipifarnib + OSI-027 (first compound 0.03162 µM), 0.357; with Tipifarnib + OSI-027 (first compound 0.1 µM), 0.399; in the assay with Tipifarnib + OSI-027 (first compound 0.3162 µM), 0.325; with Tipifarnib + OSI-027 (first compound 1 µM) it was 0.288; with Tipifarnib + Crizotinib (first compound 0.01 µM) it was 0.7. Further, the relative viability turned out to be 0.684 with Tipifarnib + Crizotinib (first compound 0.03162 µM); 0.431 with Tipifarnib + Crizotinib (first compound 0.1 µM); 0.405 in the assay with Tipifarnib + Crizotinib (first compound 0.3162 µM); 0.425 with Tipifarnib + Crizotinib (first compound 1 µM); 0.902 with Tipifarnib + Linsitinib (first compound 0.01 µM); 0.695 in the assay with Tipifarnib + Linsitinib (first compound 0.03162 µM). The relative viability with Tipifarnib + Linsitinib (first compound 0.1 µM) is 0.631; with Tipifarnib + Linsitinib (first compound 0.3162 µM), 0.542; with Tipifarnib + Linsitinib (first compound 1 µM) it was 0.583; in the assay with Tipifarnib + Tozasertib (first compound 0.01 µM), 0.358; with Tipifarnib + Tozasertib (first compound 0.03162 µM) it was 0.326; with Tipifarnib + Tozasertib (first compound 0.1 µM), 0.293. The relative viability worked out at 0.26 in the assay with Tipifarnib + Tozasertib (first compound 0.3162 µM) and 0.287 in the assay with Tipifarnib + Tozasertib (first compound 1 µM).
Regarding RERF-LC-KJ, the relative viability with Tipifarnib + OSI-027 (first compound 0.01 µM) was determined as 0.529; with Tipifarnib + OSI-027 (first compound 0.03162 µM), 0.427; in the assay with Tipifarnib + OSI-027 (first compound 0.1 µM), 0.392; in the assay with Tipifarnib + OSI-027 (first compound 0.3162 µM) it was 0.41; with Tipifarnib + OSI-027 (first compound 1 µM), 0.309; with Tipifarnib + Crizotinib (first compound 0.01 µM), 0.794. In addition, the relative viability with Tipifarnib + Crizotinib (first compound 0.03162 µM) was found to be 0.847; in the assay with Tipifarnib + Crizotinib (first compound 0.1 µM), 0.754; in the assay with Tipifarnib + Crizotinib (first compound 0.3162 µM), 0.633; with Tipifarnib + Crizotinib (first compound 1 µM), 0.713; with Tipifarnib + Linsitinib (first compound 0.01 µM), 0.918; with Tipifarnib + Linsitinib (first compound 0.03162 µM), 0.909. Moreover, the relative viability with Tipifarnib + Linsitinib (first compound 0.1 µM) was 0.874; in the assay with Tipifarnib + Linsitinib (first compound 0.3162 µM), 0.629; with Tipifarnib + Linsitinib (first compound 1 µM), 0.651; in the assay with Tipifarnib + Tozasertib (first compound 0.01 µM), 0.623; in the assay with Tipifarnib + Tozasertib (first compound 0.03162 µM) it was 0.435; with Tipifarnib + Tozasertib (first compound 0.1 µM) it was 0.454. For the same cell line, the relative viability with Tipifarnib + Tozasertib (first compound 0.3162 µM) was determined as 0.325; in the assay with Tipifarnib + Tozasertib (first compound 1 µM), 0.334.

These data come from the supplement of paper PMC10307832.
